The source made the active and inactive calls.
Experiments:
[1] = biological target: Peroxisome proliferator-activated receptor gamma/Nuclear receptor corepressor 2 (Homo sapiens, UniProt P37231+Q9Y618); format: functional
Major prion protein = Major prion protein (Homo sapiens, UniProt P04156); format: functional, cell-based
[2] = biological target: Photoreceptor-specific nuclear receptor (Homo sapiens, UniProt Q9Y5X4); format: functional;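 note: potency for compounds that break the NR2E3 corepressor complex and count as activators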
[3] = biological target: Fructose-bisphosphate aldolase (Mycobacterium tuberculosis, UniProt P9WQA3); experiment: Fluorescence-based biochemical high throughput dose response assay for inhibitors of the fructose-bisphosphate aldolase (FBA) of M. tuberculosis.; format: functional
[4] = biological target: Disintegrin and metalloproteinase domain-containing protein 17 (Homo sapiens, UniProt P78536); experiment: ADAM17 protease inhibitors, dose response, counter-screen for ADAM10 exosite inhibitor project, biochemical, quenched FRET substrate (AID 743253)
Disintegrin and metalloproteinase domain-containing protein 17, sequence (P78536 whole entry, the tested form may be a part): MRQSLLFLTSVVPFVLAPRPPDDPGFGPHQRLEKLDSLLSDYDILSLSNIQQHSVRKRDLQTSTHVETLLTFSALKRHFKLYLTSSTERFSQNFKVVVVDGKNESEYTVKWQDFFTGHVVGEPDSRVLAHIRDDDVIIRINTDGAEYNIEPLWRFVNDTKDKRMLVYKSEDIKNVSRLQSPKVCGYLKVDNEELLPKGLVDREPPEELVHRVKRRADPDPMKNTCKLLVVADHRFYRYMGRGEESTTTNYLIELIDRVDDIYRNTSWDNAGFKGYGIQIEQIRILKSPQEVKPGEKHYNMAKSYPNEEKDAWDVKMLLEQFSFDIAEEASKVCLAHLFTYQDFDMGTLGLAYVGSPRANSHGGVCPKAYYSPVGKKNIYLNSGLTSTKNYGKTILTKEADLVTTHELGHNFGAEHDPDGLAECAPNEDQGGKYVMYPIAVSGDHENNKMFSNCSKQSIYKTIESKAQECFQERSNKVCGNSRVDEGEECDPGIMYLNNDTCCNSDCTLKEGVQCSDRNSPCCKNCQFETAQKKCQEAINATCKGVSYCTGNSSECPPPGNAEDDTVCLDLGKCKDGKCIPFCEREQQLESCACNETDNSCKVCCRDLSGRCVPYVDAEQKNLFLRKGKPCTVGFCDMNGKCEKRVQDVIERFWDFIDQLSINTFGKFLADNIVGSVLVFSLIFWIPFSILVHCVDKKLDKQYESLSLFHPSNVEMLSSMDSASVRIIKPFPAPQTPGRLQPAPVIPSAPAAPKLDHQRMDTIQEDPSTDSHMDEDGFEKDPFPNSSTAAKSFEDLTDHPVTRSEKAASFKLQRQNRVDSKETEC

[5] = ADAM10 inhibitors, peptide cleavage, dose response, biochemical, QFRET (AID 743254);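 note: ADAM10 enzyme with the DM2 quenched FRET peptide as substrate; EDANS fluorescence gain as the protease cuts the substrate; inhibitor potency against ADAM10 proteolytic activity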
[6] = biological target: 1-phosphatidylinositol 4,5-bisphosphate phosphodiesterase beta-3 (Homo sapiens, UniProt Q01970); experiment: Fluorescence-based biochemical high throughput dose response assay to identify inhibitors of phospholipase C isozymes (PLC-B3).
1-phosphatidylinositol 4,5-bisphosphate phosphodiesterase beta-3, sequence (Q01970 whole entry): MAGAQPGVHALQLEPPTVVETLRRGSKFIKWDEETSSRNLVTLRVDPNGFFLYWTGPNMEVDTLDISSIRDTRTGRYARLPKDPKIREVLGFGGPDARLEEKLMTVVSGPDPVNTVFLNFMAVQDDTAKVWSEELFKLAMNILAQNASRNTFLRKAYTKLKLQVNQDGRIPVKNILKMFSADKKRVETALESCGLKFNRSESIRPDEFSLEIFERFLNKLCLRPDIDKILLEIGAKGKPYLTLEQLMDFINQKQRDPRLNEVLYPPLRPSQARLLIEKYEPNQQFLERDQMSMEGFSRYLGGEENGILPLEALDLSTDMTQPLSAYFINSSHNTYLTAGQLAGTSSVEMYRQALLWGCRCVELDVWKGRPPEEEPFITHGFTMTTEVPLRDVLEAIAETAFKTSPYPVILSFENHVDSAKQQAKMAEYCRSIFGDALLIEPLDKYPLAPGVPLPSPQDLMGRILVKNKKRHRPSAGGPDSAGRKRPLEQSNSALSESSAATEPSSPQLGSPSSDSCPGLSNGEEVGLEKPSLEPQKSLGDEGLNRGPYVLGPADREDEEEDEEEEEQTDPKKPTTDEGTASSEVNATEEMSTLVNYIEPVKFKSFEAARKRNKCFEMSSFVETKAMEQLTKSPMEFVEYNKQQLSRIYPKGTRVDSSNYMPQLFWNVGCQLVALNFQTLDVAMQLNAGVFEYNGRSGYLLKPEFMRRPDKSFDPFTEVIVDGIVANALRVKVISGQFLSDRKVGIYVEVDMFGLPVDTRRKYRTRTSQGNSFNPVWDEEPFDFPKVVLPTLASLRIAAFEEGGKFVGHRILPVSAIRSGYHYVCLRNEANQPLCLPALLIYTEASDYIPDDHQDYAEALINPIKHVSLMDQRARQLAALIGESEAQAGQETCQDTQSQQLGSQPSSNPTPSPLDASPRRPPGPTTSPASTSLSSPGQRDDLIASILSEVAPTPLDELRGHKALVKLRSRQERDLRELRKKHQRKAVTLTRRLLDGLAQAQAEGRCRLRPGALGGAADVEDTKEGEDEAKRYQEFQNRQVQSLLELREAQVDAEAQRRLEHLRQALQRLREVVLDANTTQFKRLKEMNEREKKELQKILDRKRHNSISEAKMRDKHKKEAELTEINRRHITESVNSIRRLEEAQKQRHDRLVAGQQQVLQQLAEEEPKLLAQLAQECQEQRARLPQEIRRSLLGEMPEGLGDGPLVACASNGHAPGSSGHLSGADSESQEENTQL

[7] = biological target: 1-phosphatidylinositol 4,5-bisphosphate phosphodiesterase gamma-1 (Homo sapiens, UniProt P19174); experiment: Counterscreen for inhibitors of phospholipase C isozymes (PLC-B3): Fluorescence-based biochemical high throughput dose response assay to identify inhibitors of phospholipase C isozymes (PLC-gamma1).
Beta-galactosidase = Beta-galactosidase (Escherichia coli, UniProt Q8VNN2); experiment: Dose response counterscreen for EBI2 assay utilizing the enzyme, b-galactosidase.; format: functional
[8] = biological target: T1, Oxysterols receptor LXR-beta (Homo sapiens, UniProt P55055); format: functional, cell-based;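 note: agonist activity at LXR measured by a cell-based luminescence readout across a dose range, run as a counterscreen for daf-12 agonists; HEK293 cells with Gal4-LXR fusion and GAL4-driven luciferase reporter; potency for activation of Gal4-LXR reporter so compounds are agonists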
T1 sequence (P55055 whole entry): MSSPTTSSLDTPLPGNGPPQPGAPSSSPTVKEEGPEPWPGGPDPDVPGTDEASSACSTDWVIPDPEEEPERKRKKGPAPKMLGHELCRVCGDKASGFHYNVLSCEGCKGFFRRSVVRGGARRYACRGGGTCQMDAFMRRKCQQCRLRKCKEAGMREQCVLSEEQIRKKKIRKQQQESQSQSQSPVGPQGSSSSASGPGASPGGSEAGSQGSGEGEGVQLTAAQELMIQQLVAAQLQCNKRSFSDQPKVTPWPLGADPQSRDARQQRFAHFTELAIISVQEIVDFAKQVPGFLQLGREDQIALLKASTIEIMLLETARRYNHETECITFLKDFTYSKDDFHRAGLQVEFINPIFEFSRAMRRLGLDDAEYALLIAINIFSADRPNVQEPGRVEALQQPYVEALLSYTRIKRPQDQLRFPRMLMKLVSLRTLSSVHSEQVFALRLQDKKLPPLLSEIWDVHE

[9] = HepG2 cell cytotoxicity, dose response, cytotoxicity control, ATP luminescence, cherry-pick, activator set 2 (AID 1053143); format: functional, cell-based
[10] = biological target: Long-chain-fatty-acid--AMP ligase FadD28 (Mycobacterium tuberculosis, UniProt P9WQ59); experiment: Fluorescence polarization aasay to screen for inhibitors that compete for the binding of FadD28 to a bisubstrate Measured in Biochemical System Using Plate Reader - 2147-01_Inhibitor_Dose_CherryPick_Activity.; format: functional, Mycobacterium tuberculosis H37Rv
[11] = biological target: Neurotensin receptor type 1 (Homo sapiens, UniProt P30989); format: functional;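 note: Image-based confirmatory dose-response assay measuring agonist activity at NTR1; NTR1-expressing U2OS osteosarcoma cells imaged for beta-arrestin GFP spot formation; agonist potency where compounds increase beta-arrestin recruitment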

Peroxisome proliferator-activated receptor gamma/Nuclear receptor corepressor 2, sequence (P37231 whole entry): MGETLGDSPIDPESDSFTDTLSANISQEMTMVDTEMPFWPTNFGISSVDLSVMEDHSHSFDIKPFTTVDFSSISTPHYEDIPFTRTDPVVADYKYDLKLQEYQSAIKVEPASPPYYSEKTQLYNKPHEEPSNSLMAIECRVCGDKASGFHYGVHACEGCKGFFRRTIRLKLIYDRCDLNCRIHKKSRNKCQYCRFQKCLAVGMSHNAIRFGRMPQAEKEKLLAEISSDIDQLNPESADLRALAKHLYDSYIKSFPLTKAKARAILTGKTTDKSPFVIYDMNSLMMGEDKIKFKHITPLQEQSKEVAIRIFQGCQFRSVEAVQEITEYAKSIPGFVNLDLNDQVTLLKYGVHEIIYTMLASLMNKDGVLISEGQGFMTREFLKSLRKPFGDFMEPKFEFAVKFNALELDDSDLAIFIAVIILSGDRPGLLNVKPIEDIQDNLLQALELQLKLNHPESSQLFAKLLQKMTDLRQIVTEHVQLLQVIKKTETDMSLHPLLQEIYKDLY
Peroxisome proliferator-activated receptor gamma/Nuclear receptor corepressor 2, sequence (Q9Y618 whole entry): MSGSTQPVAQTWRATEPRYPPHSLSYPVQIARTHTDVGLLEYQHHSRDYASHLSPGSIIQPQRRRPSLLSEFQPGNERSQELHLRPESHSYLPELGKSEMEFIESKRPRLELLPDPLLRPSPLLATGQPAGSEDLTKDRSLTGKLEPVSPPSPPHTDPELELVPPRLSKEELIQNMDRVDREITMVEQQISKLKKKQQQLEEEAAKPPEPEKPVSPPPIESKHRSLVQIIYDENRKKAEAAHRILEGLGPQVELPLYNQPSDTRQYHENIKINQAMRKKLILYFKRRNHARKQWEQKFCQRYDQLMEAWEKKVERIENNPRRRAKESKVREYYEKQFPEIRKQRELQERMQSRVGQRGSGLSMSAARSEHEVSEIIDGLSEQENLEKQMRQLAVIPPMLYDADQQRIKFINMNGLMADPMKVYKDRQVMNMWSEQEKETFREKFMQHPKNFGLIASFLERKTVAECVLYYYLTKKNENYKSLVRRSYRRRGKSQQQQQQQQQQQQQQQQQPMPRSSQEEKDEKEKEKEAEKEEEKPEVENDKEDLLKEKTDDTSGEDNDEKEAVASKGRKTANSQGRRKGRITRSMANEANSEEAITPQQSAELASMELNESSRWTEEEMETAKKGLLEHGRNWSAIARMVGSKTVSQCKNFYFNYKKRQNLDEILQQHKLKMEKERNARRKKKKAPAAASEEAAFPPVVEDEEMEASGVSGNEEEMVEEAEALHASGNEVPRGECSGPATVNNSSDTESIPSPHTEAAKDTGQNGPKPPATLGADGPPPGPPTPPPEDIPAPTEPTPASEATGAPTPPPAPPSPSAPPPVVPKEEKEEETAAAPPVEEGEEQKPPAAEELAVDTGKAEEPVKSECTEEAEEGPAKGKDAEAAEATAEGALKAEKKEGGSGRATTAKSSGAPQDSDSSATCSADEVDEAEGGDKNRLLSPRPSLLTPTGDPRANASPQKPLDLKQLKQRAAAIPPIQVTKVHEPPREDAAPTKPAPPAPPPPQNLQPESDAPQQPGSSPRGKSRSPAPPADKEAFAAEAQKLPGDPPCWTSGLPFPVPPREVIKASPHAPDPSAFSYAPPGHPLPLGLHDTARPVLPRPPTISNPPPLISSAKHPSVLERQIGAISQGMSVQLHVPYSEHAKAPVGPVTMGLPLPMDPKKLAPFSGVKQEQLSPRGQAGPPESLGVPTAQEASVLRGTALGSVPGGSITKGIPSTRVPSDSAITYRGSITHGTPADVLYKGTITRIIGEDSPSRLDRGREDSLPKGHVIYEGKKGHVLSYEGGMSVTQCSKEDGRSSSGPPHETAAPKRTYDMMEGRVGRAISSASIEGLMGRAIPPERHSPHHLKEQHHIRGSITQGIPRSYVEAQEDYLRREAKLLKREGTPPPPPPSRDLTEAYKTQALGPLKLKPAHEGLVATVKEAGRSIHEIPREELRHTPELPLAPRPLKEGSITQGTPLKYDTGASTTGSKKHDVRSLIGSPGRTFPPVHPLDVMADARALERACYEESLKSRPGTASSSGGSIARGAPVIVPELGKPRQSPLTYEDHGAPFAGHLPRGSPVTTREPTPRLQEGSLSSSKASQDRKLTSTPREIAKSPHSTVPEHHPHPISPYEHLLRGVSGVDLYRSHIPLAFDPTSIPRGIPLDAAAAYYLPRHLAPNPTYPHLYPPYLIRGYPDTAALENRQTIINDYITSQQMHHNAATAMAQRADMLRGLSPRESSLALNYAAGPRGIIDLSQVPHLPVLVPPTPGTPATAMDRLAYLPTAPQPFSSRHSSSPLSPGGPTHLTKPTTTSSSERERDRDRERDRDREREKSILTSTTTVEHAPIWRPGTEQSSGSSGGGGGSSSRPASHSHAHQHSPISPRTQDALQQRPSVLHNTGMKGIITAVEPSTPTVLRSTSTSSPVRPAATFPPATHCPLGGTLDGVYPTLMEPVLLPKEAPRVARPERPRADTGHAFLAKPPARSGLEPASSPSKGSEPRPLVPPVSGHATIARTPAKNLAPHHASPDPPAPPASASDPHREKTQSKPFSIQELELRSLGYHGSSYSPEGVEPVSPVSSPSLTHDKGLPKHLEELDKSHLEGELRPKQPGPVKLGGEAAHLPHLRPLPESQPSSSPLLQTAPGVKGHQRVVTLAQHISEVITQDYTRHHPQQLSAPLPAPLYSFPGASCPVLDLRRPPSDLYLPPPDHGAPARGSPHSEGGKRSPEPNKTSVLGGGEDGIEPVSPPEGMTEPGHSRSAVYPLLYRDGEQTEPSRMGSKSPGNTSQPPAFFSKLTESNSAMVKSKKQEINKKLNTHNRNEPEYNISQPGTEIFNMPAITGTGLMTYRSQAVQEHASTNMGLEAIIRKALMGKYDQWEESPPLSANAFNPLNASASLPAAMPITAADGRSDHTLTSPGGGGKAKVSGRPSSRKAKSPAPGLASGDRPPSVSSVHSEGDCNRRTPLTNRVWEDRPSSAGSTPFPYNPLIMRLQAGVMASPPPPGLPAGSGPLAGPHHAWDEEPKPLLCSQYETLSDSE

CC(C)C1Cc2ccccc2-c2[nH]c(=S)[nH]c(=O)c21 (stereo unspecified)
IC50 [1]: 4.66 µM (active)
IC50 (Major prion protein): 4.87 µM (active)
IC50 [2]: > 39.8 µM (not active)

CC(C)C1Cc2ccccc2-c2nc(S)nc(O)c21 (stereo unspecified)
IC50 (cells): > 138 µM (inactive)

Cc1cccc(C)c1NC(=S)Nc1ccccc1C(=O)NCc1ccco1
IC50 [3]: 6.61 µM (active)

CSc1cccc(NC(=O)CCCOc2ccc(Cl)cc2C)c1
IC50 [4]: > 69.5 µM (inactive)
IC50 [5]: 65.6 µM (inactive)

Cc1cc(C(=O)NNC(=S)NCC(C)C)cs1
IC50 [6]: > 122 µM (inactive)
IC50 [7]: > 122 µM (inactive)

COc1ccc(OCC(=O)Nc2ccc(N3CCOCC3)cc2)cc1
IC50 (Beta-galactosidase): > 80 µM (inactive)

COc1cccc(-c2nc(-c3ccc(Br)o3)no2)c1
EC50 [8]: > 67.5 µM (inactive)
AC50 [9]: > 52 µM (inactive)

COc1ccc(/C=C2\SC(=O)N(CC(=O)Nc3cccc(C)c3)C2=O)cc1O
AC50 [10]: 1.47 µM (active)

Cc1ccc(C(=O)Nc2nnc(N=C(S)Nc3ccccc3)s2)cc1
IC50 [5]: > 69.5 µM (inactive)

Cc1ccc(C(=O)Nc2nnc(NC(=S)Nc3ccccc3)s2)cc1
EC50 [11]: 7.59 µM (active)
IC50 [4]: > 69.5 µM (inactive)

Reference: ChEMBL document CHEMBL1201862, “PubChem BioAssay data set” (2004)
